US20030143559A1, “Novel estrogen receptor ligand binding domain variants and novel ligands and pharmaceutical compositions” (priority 2001, published 2003)
Residue numbers refer to the chain shown, from its start.

Legend:
[1] = BIV lentiviral reporter vector without activator, eGFP expression by FACS in 293T cells; type: cell-based; settings: reporter BIVC2H2FOSEGFP, activator none; 100 nM, forty-eight hours
Text: One of the reporter constructs described above was introduced individually into 3×10^6 293T cells along with other components of the BIV four component packaging system (U.S. patent application of Luo et al. filed Feb. 4, 2002 entitled “Recombinant Bovine Immunodeficiency Virus Based Gene Transfer System” (Atty Docket No. 2048-127; serial number to be assigned) and Matukonis et al., (“Development of Second and Third Generation of Bovine Immunodeficiency Virus Based Gene Transfer Systems” Human Gene Therapy, in press (2002)) by CaPO4-mediated transient transfection. Eighteen hours post transfection, media were replaced with fresh DMEM containing 10% FBS and 200 mM butyric acid. Forty-eight hours later, conditioned media were collected from the transfected cells. Two mls of conditioned media from each transfection plus 2 mls of DMEM/FBS were added to 2×10^5 293T cells in individual wells of a six well tissue culture plate. In addition, 2 mls of conditioned media from either the pBIVC2H2FOSeGFP transfections were combined with 2 mls of conditioned media from the pBIVMNDC7 or pBIVMND2AS transfections and added to 2×10^5 293T cells. 8 μg/ml protamine sulfate were added to each transduction reaction. Four hours later, conditioned media was removed from the transduced cells and replaced with fresh DMEM/FBS. […]

ER-LBD H524G = target: T1, ER-LBD H524G (Homo sapiens, UniProt P03372, H524G); assay: ER-LBD H524G transactivation, cell-based reporter gene assay
T1 construct: expressed in transfected cells
T1 sequence (P03372 311-547 H524G limits assumed): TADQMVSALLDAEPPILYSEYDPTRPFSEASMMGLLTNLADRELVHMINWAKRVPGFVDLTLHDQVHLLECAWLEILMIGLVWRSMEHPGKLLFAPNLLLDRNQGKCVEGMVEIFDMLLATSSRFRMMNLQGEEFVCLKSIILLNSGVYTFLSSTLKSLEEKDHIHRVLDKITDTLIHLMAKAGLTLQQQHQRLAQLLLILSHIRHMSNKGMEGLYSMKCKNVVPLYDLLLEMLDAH
Experimental: (§1) In order to evaluate the ability of the fusion proteins C7LBD A, B, and the related LBD mutants to regulate transgene expression, a standard co-transfection reporter assay was performed. A reporter construct, henceforth known as 6×2C7pGL3Luc, containing six copies of a directly repeated C7 binding site (6×2C7) inserted upstream of an SV40 promoter fragment and reporter gene encoding firefly luciferase (pGL3Pro; Promega) was transfected along with the designated fusion protein and assayed as described below. Note the consensus C7 binding site is 5′-GCG TGG GCG-3′.
(§2) Cultured cells (HeLa, Cos, Hep3B or other) were seeded at 5×10^4 cells/well in a 24 well plate prior to the day of transfection in DMEM Phenol-free media, supplemented with L-glutamine and 5% (v/v) charcoal-dextran stripped Fetal Bovine serum (sFBS). Cells were transfected using the Qiagen Superfect Transfection method. For each well 1 μg of total DNA, containing 0.5 μg luciferase reporter plasmid (6×2C7pGL3Luc), 0.1 μg of chimeric activator DNA (e.g., C7LBDA, C7LBDB, or mutants thereof ), and 0.4 μg of an inert carrier plasmid DNA (p3Kpn), was mixed with 60 μL of DMEM phenol-free/serum free media, and 5 μL of Superfect reagent. In general, about 10 ng to about 0.5 μg of chimeric activator DNA was used for each well.
The mixture was vortexed for 10 seconds and incubated at room temperature for 10 minutes, followed by the addition of 350 μL of DMEM phenol-free 5% sFBS media. Cells were washed once with Dulbecco's phosphate buffered saline (DPBS) and the transfection mixture placed on the cells. Cells were washed once with DPBS following a 2.5 hour incubation at 37 degrees Celsius, and re-fed with DMEM Phenol-free 5% sFBS media.
Cells were treated 24 hours later by washing once with DPBS and adding 200 μL 1X reporter lysis buffer (Promega). Plates were frozen at -80° C. and on the day of assay thawed at room temperature for 1.5 hours on an orbital shaker at 100 RPM. After allowing for cellular debris to settle, lysate was transferred to a new tube, diluted 1:10 with 1X reporter lysis buffer and 10 μL transferred to 96 well opaque plates.
The sequence of the oligonucleotides used for the H524G modification were […] […] Mutated plasmids were isolated and their sequence confirmed.

H524A mutant = target: T2, H524A mutant (Homo sapiens, UniProt P03372, H524A); assay: H524A mutant activation, cell-based reporter gene assay; settings: 10 nM ligand
T2 construct: plasmids encoding the fusion proteins ER-LBD-C7LBDa and C7LBDb to substitute either alanine or glycine for histidine at residue 524; expressed in transfected cells
T2 sequence (P03372 311-547 H524A limits assumed): T1 sequence (P03372 311-547 H524G limits assumed) with G214A
Experimental: as §1
as §2, with “well. […]” for “well.”

wild-type ER = target: T3, wild-type ER (Homo sapiens, UniProt P03372); assay: Inhibition of E2 activity on wild-type ER, COS-7 cells with pHEGO and ERE luciferase reporter; type: cell-based; settings: IC50 ± STDEV, pHEGO and pERETkLuc, E2 (3 nM) + 0.1 to 1000 nM compound
T3 construct: expressed in transfected cells; host or cells: COS-7
T3 sequence (P03372 1-595): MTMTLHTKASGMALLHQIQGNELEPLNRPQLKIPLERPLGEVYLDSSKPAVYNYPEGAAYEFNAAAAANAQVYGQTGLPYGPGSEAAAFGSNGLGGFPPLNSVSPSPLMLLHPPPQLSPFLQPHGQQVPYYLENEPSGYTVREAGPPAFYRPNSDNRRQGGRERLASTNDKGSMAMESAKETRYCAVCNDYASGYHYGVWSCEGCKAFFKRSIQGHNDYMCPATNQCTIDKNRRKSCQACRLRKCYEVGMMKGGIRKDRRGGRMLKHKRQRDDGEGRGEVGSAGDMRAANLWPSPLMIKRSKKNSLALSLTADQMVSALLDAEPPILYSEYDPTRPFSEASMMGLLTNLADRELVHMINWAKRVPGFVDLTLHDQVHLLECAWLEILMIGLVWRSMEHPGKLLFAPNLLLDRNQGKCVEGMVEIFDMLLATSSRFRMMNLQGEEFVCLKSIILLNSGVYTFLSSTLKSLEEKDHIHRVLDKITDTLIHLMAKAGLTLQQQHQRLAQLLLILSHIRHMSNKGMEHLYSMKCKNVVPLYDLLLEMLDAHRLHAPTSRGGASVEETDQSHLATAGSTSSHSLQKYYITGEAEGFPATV
Experimental: For transfection, 0.5 microgram of pERE2tkluc reporter plasmid, 20 ng of pHEGO, and 0.5 microgram of pCIneo inert carrier DNA were combined with 60 microliter serum-free DMEM and 5 microliter Qiagen Superfect transfection reagent, vortexed for 10s, and set at room temperature for 10 min. Each sample was diluted with 350 microliters of steroid-free media, mixed, and added to each well. Following 2 hr 30 min incubation at 37° C., cells were washed once with Dulbecco's phosphate buffered saline (DPBS), and refed with steroid-free media. […] Approximately 24 hr after treatment, cells were washed once with DPBS, then 200 microliter of reporter lysis buffer was added per well and frozen at −80° C. Cells were thawed at room temperature on an orbital shaker for 1 hr 30 min. A 10 microliter aliquot of lysate was transferred to 96 well opaque plates, and relative luciferase units (RLU) determined on a luminometer using the appropriate firefly luciferase substrate.
Note that the nonspecific activity is a noncompetable element in the assay system.
In order to dissolve them completely, all the solutions were warmed in 55° C. or boiled water bath for 10 to 20 min before use. The DMSO in cell culture medium was maintained to 0.01% for all the drug concentration tested as well as the vehicle control.

Av3-H524G = target: T4, Av3-H524G (Homo sapiens, UniProt P03372, H524G); assay: Transactivation on adenoviral (Av3)-delivered ER variant, luciferase in HeLa cells; type: cell-based; settings: 100 nM test compound, 24 hrs (FIG. 5)
T4 construct: fragment B=ER amino acids 258-554; expressed in transfected cells; host or cells: HeLa cells transduced with Av3 or gutless adenoviral vector
T4 sequence (P03372 258-554 H524G): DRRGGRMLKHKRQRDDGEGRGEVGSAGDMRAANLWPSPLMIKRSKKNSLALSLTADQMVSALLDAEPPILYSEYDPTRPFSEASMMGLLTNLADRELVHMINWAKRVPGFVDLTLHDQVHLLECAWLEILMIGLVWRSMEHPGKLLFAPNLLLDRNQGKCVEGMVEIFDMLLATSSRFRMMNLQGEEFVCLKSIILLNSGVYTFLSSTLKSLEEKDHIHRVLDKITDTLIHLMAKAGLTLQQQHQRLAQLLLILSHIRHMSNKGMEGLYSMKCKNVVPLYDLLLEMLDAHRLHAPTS
Text: Xu et al., Molecular Therapy, 3:262-273, 2000.

[2] = target: T5, 524G transcription factor (Homo sapiens, UniProt P03372, H524G); assay: In vitro inducible luciferase expression with gutless adenoviral transcription factor vector in Hela cells; type: cell-based
T5 construct: fragment B=ER amino acids 258-554; expressed in transfected cells; host or cells: HeLa cells transduced with Av3 or gutless adenoviral vector
T5 sequence (P03372 258-554 H524G): T4 sequence (P03372 258-554 H524G)

| Molecule | % Gated Cells [1] [%] | degree of induction of H524G as compared to estrogen (ER-LBD H524G; 10 nM) | fold induction at 0.01 µM (ER-LBD H524G; 10 nM ligand, H524G (FIG. 6)) | fold induction at 10 nM (ER-LBD H524G; 10 nM ligand, H524G (FIG. 6)) [fold] | EC50 (ER-LBD H524G; Table 3, read-out: EC50 ± STDEV) [nM] | fold induction at 0.01 µM (H524A mutant) | IC50 (wild-type ER) [nM] | luciferase activity over the basal level (Av3-H524G) [times] | Fold Induction ([2]; 100 nM ligand vs without ligand) [fold] | Luciferase Expression Levels (Relative Light Units) ([2]; (+) induced with 100 nM ligand, mean +/− standard error (n = 4)) |
| --- | --- | --- | --- | --- | --- | --- | --- | --- | --- | --- |
| 4-hydroxytamoxifen [4-OHT] | 0.36 |  |  |  |  |  |  |  |  |  |
| C/C(=C(/c1ccc(O)cc1)c1ccc(OCCN(C)C)cc1)c1ccc(N2CCOCC2)cc1 [LBF580, 4-((1E)-1-{4-[2-(dimethylamino)ethoxy]phenyl}-2-(4-morpholin-4-ylphenyl)prop-1-enyl)phenol] |  | nine | 138 | 140 | ≤ 25 | 4 | 253 | 16 | 8 | 285695 +/− 2331 Relative Light Units |
